Reference: patent US11312950B2, “3D synthetic tissue hydrogels” (University of Massachusetts, priority 2017, dated 2022)

Assays:
hMSCs [1] = test: Outgrowth of hMSCs on beads in hydrogels made with a single MMP degradable crosslinker; format: cell-based, human; conditions: versus control, non-degradable crosslinker
Description: (§1) Cytodex1 microcarrier beads (Sigma) were swollen in sterile IX PBS (1 g beads/50 mL PBS) and autoclaved for 30 minute at 121° C. Flasks were coated with poly (2-hydroxyethy methacrylate) suspended in ethanol at 20 mg/mL and allowed to evaporate in a biosafety cabinet for 1 hour to make they non-adherent. hMSCs were seeded at 10-50 cells/bead in non-adherent flasks at a 0.1 mL of beads/mL of media. The flask was shaken every 1 hour for 4 hours to ensure coating unto beads. Cells were allowed to grow on beads for 72 hours before seeding into hydrogels. Breast cancer cells were suspended in 4° C., poly(N-isopropylacryamide)-poly(ethylene glycol) (pNIPAAM-PEG, Cosmo Bio) reconstituted in cell culture medium at a density of 167,000 cells/mL of MDA-MB-231s. Gelation occurred after 5 min at 37° C., and gels were swollen in cell culture medium and grown into spheroids for 14 days. pNIPAAm gels were dissolved in cold serum-free DMEM (1% pen/strep) and spheroids transferred to conical tubes placed in ice so that spheroids would settle to the bottom. The supernatant was removed and the spheroids were re-suspended in PEG-maleimide solution. A ratio of 9 3D hydrogels were made for every 150 μL of pNIPAAM-PEG. Hydrogels were prepared with 4-arm PEG-maleimide at a 20 wt % cross-linked at a 1:1 molar ratio with 50% 1.5 K linear PEG-dithiol and 50% of each individual MMP degradable peptide sequence (FIGS. 13A-13C). Gels were imaged at days 1 and 3 and all image analysis was performed in ImageJ (National Institutes of Health).

MDA-MB-231 cells = test: MDA-MB-231 spheroid growth in hydrogels with one MMP degradable crosslinker; format: cell-based, human; conditions: spheroid size ratio
Description: as §1, with “Gels were imaged at days 1 and 3 and all image analysis was performed in ImageJ (National Institutes of Health).” left out

hMSCs [2] = test: Competitive binding assay: adhesion of hMSCs pre-treated with soluble peptides to a surface with the bone marrow peptide cocktail; format: cell-based, human; conditions: 30 minutes pretreatment; glass surface with bone marrow integrin-binding peptide cocktail; three donor hMSCs and hTERT MSCs; 2 hours
Description: Cells were seeded at 4000 cells per cm^2 in their normal growth medium after 30 minutes of pretreatment with individual peptides or the complete bone marrow cocktail. Bone marrow was dosed at a molar amount of […] of medium and the molar amount dosed for each peptide was as follows: GRGDSPCG (SEQ ID NO:8)at 600 pmol/mL, CGPHSRNGGGGGGRGDS (SEQ ID NO:14), and […] (SEQ ID NO:18) at 220 pmol/mL, CGP(GPP)5GFOGER(GPP)5 (SEQ ID NO:15), CGGSVVYGLR (SEQ ID NO:13), and GPRGGC (SEQ ID NO:2)at 160 pmol/mL, CSVTCG (SEQ ID NO:4) and […] (SEQ ID NO:5) at 100 pmol/mL, GCGDGEA (SEQ ID NO:1), CSRARKQAASIKVAVADR (SEQ ID NO:3), GCKQLREQ (SEQ ID NO:6), and CGGAEIDGIEL (SEQ ID NO:16) at 60 pmol/mL, and GCDPGYIGSR (SEQ ID NO:7) at 40 pmol/mL. Cells were imaged cells beginning 10 minutes after seeding in an environment controlled Zeiss Axio Observer Z1 microscope (Carl Zeiss) using an AxioCam MRm camera and an EC Plan-Neofluar 20× 0.4 NA air objective. Images were taken using Zen (Carl Zeiss) at five-minute intervals for 2 hours and cell areas were traced in ImageJ (National Institutes of Health).

chick arotic cells = conditions: cited from earlier work
myofibroblasts = conditions: cited from earlier work

Row | Substance | hMSC cell branching into hydrogel (maximum branch length per bead) (hMSCs [1]) | degradation of crosslinked gel by MDA-MB-231 spheroids (MDA-MB-231 cells) | cell adhesion (cell area) after pre-treatment with soluble peptide (hMSCs [2]) | ability of MMP peptide to degrade (chick arotic cells) | ability of MMP peptide to degrade (myofibroblasts)
1 | GCRDGPLGLWARDRCG [MMP-13 crosslinker, di-functional MMP degradable crosslinker peptide designed for MMP 13 (Collagenase-3)] | No significant hMSC cell branching | degradation in the MMP-13 crosslinked gel was observed |  |  | 
2 | CGP(GPP)5GFOGER(GPP)5 (CGPGPPGPPGPPGPPGPPGFGERGPPGPPGPPGPPGPP) [collagen I] |  |  | not significantly bound |  | 
3 | GCRDSGESPAYYTADRCG [MMP-2 crosslinker, di-functional MMP degradable crosslinker peptide designed for MMP 2 (Gelatinase A)] | No significant hMSC cell branching | again not with the MMP 2 and 3 peptides |  | ability for these MMP peptides to degrade has been shown | 
4 | CGGAEIDGIEL [tenascin C] |  |  | not significantly bound |  | 
5 | GCRDRPFSMIMGDRCG [MMP-3 crosslinker, di-functional MMP degradable crosslinker peptide designed for MMP 3 (Stromelysin-1)] | No significant hMSC cell branching | again not with the MMP 2 and 3 peptides |  |  | ability for these MMP peptides to degrade has been shown
